Patent publication US20260250318A1, “COMPOSITIONS AND METHODS FOR CROSSING THE BLOOD BRAIN BARRIER” (VOYAGER THERAPEUTICS, INC., priority 2022, published 2026)

Tests used:
[1] = system: brains, heart, liver, muscle, and DRG of the NHPs; assay: Maturation of TTM-001 and TTM-002 capsids, NGS enrichment in NHP tissues; assay type: in vivo; conditions: relative to AAV9 control
Method in brief: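 Variants carry mutations within and flanking the loop IV peptide insert: positions 450–466 were triplet-randomized, while positions 449–466 received low-frequency point mutations. The combined pool went into two NHPs, and each peptide was scored by NGS enrichment ratio against AAV9.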

[2] = system: brain; assay: Matured TTM-001 and TTM-002 variants, NGS enrichment in mouse brain; assay type: in vivo, mice; conditions: relative to AAV9 control
[3] = NGS fold-enrichment of RNA, NHP brain
[4] = NGS fold-enrichment, DRG of NHPs
[5] = NGS fold-enrichment, NHP liver DNA
[6] = NGS fold-enrichment, NHP liver RNA
[7] = NGS fold-enrichment, NHP muscle
[8] = NGS fold-enrichment, RNA, brain of NHPs
[9] = NGS fold-enrichment, heart of NHPs
[10] = NGS fold-enrichment, liver DNA of NHPs
[11] = NGS fold-enrichment, liver RNA of NHPs
[12] = NGS fold-enrichment, muscle of NHPs
[13] = NGS fold-enrichment, brain of mice
[14] = NGS fold-enrichment, mouse brain
[15] = NGS fold-enrichment of matured AAV capsid variants, NHP brain, RNA

Sequence	Fold Enrichment relative to AAV9, Brain (NHP) [1, 3] [fold]	Fold Enrichment relative to AAV9, DRG (NHP) [1, 4] [fold]	Fold Enrichment relative to AAV9, DRG (NHP) ([1]; NGS fold-enrichment, NHP DRG) [fold]	Fold Enrichment relative to AAV9, Heart (NHP) ([1]; NGS fold-enrichment, NHP heart) [fold]	Fold Enrichment relative to AAV9, Liver DNA (NHP) [1, 5] [fold]	Fold Enrichment relative to AAV9, Liver RNA (NHP) [1, 6] [fold]	Fold Enrichment relative to AAV9, Muscle (NHP) [1, 7] [fold]	Fold Enrichment relative to AAV9, Brain (NHP) [1, 8] [fold]	Fold Enrichment relative to AAV9, Heart (NHP) [1, 9] [fold]	Fold Enrichment relative to AAV9, Liver DNA (NHP) [1, 10] [fold]	Fold Enrichment relative to AAV9, Liver RNA (NHP) [1, 11] [fold]	Fold Enrichment relative to AAV9, Muscle (NHP) [1, 12] [fold]	Fold Enrichment relative to AAV9, Brain (Mouse) [2, 13] [fold]	Fold Enrichment relative to AAV9, Brain (Mouse) [2, 14] [fold]	Fold Enrichment relative to AAV9, Brain (NHP) [1, 15] [fold]	Fold Enrichment relative to AAV9, DRG (NHP) ([1]; NHP DRG) [fold]	Fold Enrichment relative to AAV9, Heart (NHP) ([1]; NHP heart) [fold]	Fold Enrichment relative to AAV9, Liver DNA (NHP) ([1]; NHP liver, DNA) [fold]	Fold Enrichment relative to AAV9, Liver RNA (NHP) ([1]; NHP liver, RNA) [fold]	Fold Enrichment relative to AAV9, Muscle (NHP) ([1]; NHP muscle) [fold]	further results
KTDKTSGSPHSKAQNQQT	81.430	0.000	0.000	0.000	0.291	1.362	0.000	81.430	0.000	0.291	1.362	0.000	169.515	169.515							
KTVNGNGSPHSKAQNKQT	81.481	0.000	0.000	0.000	0.122	0.000	0.000	81.481	0.000	0.122	0.000	0.000	69.455	69.455							
KAINGHDSPHKSAQNQET	90.402		0.000	0.073	0.000	0.746	0.000							10.674							
KTENTSGSPHSKAQNQQT		0.000						74.061	0.000	0.730	0.233	0.218	96.249								
KTREISGSPHSKAQNQQT															59.027	0.000	0.042	0.269	0.356	0.224	Fold Enrichment relative to AAV9, Brain (Mouse) ([2]; mouse brain): 51.696 fold
KSLNGSGSPHTKAQNQQT	81.515		0.197	0.333	0.085	0.000	0.000							45.140							
KTINGGGSPHSKAQDKQT		0.000						59.322	0.000	0.093	0.000	0.000	50.764								
KTINGHDSPHKSAQNYQT	130.375		0.000	0.124	0.123	0.097	0.000							19.443							
KTINGSGSPHSKAQGIRT		0.041						61.952	0.000	0.502	0.897	0.012	155.013								
KTVPNSGSPHSKAQNQQT		0.000						62.540	0.000	0.161	0.202	0.011	93.793								
KQGEGSGSPHSKAQNQQT															58.752	0.000	0.000	0.151	0.000	0.000	Fold Enrichment relative to AAV9, Brain (Mouse) ([2]; mouse brain): 135.300 fold
KNSLGSGSPHSKAQNQQT															56.621	0.000	0.028	0.162	0.308	0.000	Fold Enrichment relative to AAV9, Brain (Mouse) ([2]; mouse brain): 101.942 fold
KTINGSGSPHSKAQVRNT															52.735	0.000	0.101	0.423	0.230	0.011	Fold Enrichment relative to AAV9, Brain (Mouse) ([2]; mouse brain): 68.893 fold
KELHGSGSPHSKAQNQQT	102.680	0.000	0.000	0.000	0.592	1.634	0.000	102.680	0.000	0.592	1.634	0.000	96.554	96.554							
KAINGPDSPHKSGQKQQT	78.213		0.464	0.047	0.162	0.323	0.000							10.395							
KTIIKNGSPHSKAQNQQT															50.587	0.000	0.000	0.751	0.000	0.000	Fold Enrichment relative to AAV9, Brain (Mouse) ([2]; mouse brain): 75.547 fold
